For 13 compounds, IC50 results are on record in patent publication US20190071416A1, “COMPOUNDS FOR TREATMENT OF CANCER AND EPIGENETICS” (Agency For Science, Technology and Research, priority 2015, published 2019).

The test addresses T1, SMYD3 (Homo sapiens, UniProt Q9H7B4).
T1 sequence (Q9H7B4 1-428): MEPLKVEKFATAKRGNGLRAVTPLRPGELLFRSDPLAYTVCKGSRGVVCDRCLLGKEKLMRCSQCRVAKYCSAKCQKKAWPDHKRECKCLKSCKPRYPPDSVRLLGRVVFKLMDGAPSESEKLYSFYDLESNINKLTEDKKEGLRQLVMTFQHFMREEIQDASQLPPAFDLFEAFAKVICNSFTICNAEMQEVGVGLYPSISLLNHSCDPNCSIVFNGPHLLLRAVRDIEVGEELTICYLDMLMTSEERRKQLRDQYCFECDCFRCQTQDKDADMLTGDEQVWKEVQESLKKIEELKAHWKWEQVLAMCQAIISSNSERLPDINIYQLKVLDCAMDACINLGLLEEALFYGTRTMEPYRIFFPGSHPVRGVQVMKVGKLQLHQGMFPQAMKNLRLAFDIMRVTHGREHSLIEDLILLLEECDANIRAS
Kind of test: SMYD3 biochemical assay (MTase-Glo, MAP3K2 peptide substrate). The conditions noted are these: Table 3; MTase assay, MAP3K2 peptide substrate; read-out: IC50. How it is done:
A SMYD3 enzymatic assay was developed using Promega's Methyltransferase-Glo™ reagents. In the assay, SMYD3 catalyzes the methylation of the MAP3K2 peptide substrate by transferring a methyl group from SAM to MAP3K2 peptide and further converts the SAM to SAH. The SMYD3 methyltransferase activity is measured based on the amount of SAH produced from the reaction through the use of coupling enzymes that convert the SAH to ATP. The MTase-Glo detection solution then catalyzes the formation of light from ATP.
A final concentration of 1.0 μM and 10 μM SAM and MAP3K2 peptide were added and further incubated for 30 min at room temperature before adding the MTase Glo and detection reagent. Reaction signals were detected using microplate readers on luminescent mode (Safire Tecan). The IC50 was determined by non-linear regression, using GraphPad Prism version, 5.03.
The IC50 is the midpoint of a concentration-inhibition curve. Regarding `CCCOC(=O)N1CCN(C(=O)c2ccc3c(Cl)c4c(nc3c2)CCC(CC(=O)OC)C4)C[C@@H]1C` (stereo partly drawn) [A062, Propyl (2S)-4-(9-chloro-7-(2-methoxy-2-oxoethyl)-5,6,7,8-tetrahydroacridine-3-carbonyl)-2-methylpiperazine-1-carboxylate], the IC50 worked out at 210 nM. The same measure for `CCCOC(=O)N1CCN(C(=O)c2ccc3c(Cl)c4c(nc3c2)CCC(CC(=O)OC)C4)C[C@H]1C` (stereo partly drawn) [A063, Propyl (2R)-4-(9-chloro-7-(2-methoxy-2-oxoethyl)-5,6,7,8-tetrahydroacridine-3-carbonyl)-2-methylpiperazine-1-carboxylate]: 250 nM; for `CCCOC(=O)N1CCN(C(=O)c2ccc3c(Cl)c4c(nc3c2)CCCC4)C(C(F)(F)F)C1` (stereo not shown) [A064, Propyl 4-(9-chloro-5,6,7,8-tetrahydroacridine-3-carbonyl)-3-(trifluoromethyl)piperazine-1-carboxylate]: 700 nM; for `CCCOC(=O)N1CCN(C(=O)c2ccc3c(Cl)c4c(nc3c2)CC(CC#N)CC4)CC1` (stereo not shown) [A065, Propyl 4-(9-chloro-6-(cyanomethyl)-5,6,7,8-tetrahydroacridine-3-carbonyl)piperazine-1-carboxylate]: 190 nM.

For `CCCOC(=O)N1CCN(C(=O)c2ccc3c(Cl)c4c(nc3c2)CC(CN)CC4)[C@@H](C)C1` (stereo partly drawn) [A067, Propyl (3S)-4-(6-(aminomethyl)-9-chloro-5,6,7,8-tetrahydroacridine-3-carbonyl)-3-methylpiperazine-1-carboxylate], the IC50 is 160 nM.

Consider `CCCOC(=O)N1CCN(C(=O)c2ccc3c(Cl)c4c(nc3c2)CCC(CN(C)C)C4)CC1` (stereo not shown) [A068, Propyl 4-(9-chloro-7-((dimethylamino)methyl)-5,6,7,8-tetrahydroacridine-3-carbonyl)piperazine-1-carboxylate], for which the half-maximal inhibitory concentration (IC50) was 1200 nM. The same measure for `CCCOC(=O)N1CCN(C(=O)c2ccc3c(Cl)c4c(nc3c2)CCCC4)CC1CC(=O)OC` (stereo not shown) [A069, Propyl 4-(9-chloro-5,6,7,8-tetrahydroacridine-3-carbonyl)-2-(2-methoxy-2-oxoethyl)piperazine-1-carboxylate]: 5200 nM; for `CCCOC(=O)N1CCN(C(=O)c2ccc3c(Cl)c4c(nc3c2)CCCC4)C(CC(=O)OC)C1` (stereo not shown) [A070, Propyl 4-(9-chloro-5,6,7,8-tetrahydroacridine-3-carbonyl)-3-(2-methoxy-2-oxoethyl)piperazine-1-carboxylate]: 2600 nM; for `CCCOC(=O)N1CCN(C(=O)c2ccc3c(Cl)c4c(nc3c2)CCCC4)C(CC(=O)N(C)C)C1` (stereo not shown) [A071, Propyl 4-(9-chloro-5,6,7,8-tetrahydroacridine-3-carbonyl)-3-(2-(dimethylamino)-2-oxoethyl)piperazine-1-carboxylate]: 4200 nM.

`CCCOC(=O)N1CCN(C(=O)c2ccc3c(Cl)c4c(nc3c2)CCCC4)C(CC(=O)NC)C1` (stereo not shown) [A072, propyl 4-(9-chloro-5,6,7,8-tetrahydroacridine-3-carbonyl)-3-(2-(methylamino)-2-oxoethyl)piperazine-1-carboxylate]: the half-inhibitory concentration (IC50) was 4300 nM. Take `CCCOC(=O)N1CCN(C(=O)c2ccc3c(Cl)c4c(nc3c2)CC(c2ccccn2)CC4)C[C@@H]1C` (stereo partly drawn) [A073, Propyl (2S)-4-(9-chloro-6-(pyridin-2-yl)-5,6,7,8-tetrahydroacridine-3-carbonyl)-2-methylpiperazine-1-carboxylate]: the IC50 was determined as 150 nM. The same measure for `CCCOC(=O)N1CCN(C(=O)c2ccc3c(Cl)c4c(nc3c2)CCC(CCN(C)C)C4)CC1` (stereo not shown) [A075, Propyl 4-(9-chloro-7-(2-(dimethylamino)ethyl)-5,6,7,8-tetrahydroacridine-3-carbonyl)piperazine-1-carboxylate]: 210 nM.

With `CCCOC(=O)N1CCN(C(=O)c2ccc3c(Cl)c4c(nc3c2)CC(CCN)CC4)CC1` (stereo not shown) [A076, Propyl 4-(6-(2-aminoethyl)-9-chloro-5,6,7,8-tetrahydroacridine-3-carbonyl)piperazine-1-carboxylate], the half-inhibitory concentration (IC50) turned out to be 160 nM.
